Tests used:
SRSF protein kinase 1 = SRSF protein kinase 1 (Homo sapiens, UniProt Q96SB4); experiment: Selectivity interaction (KinomeScan (DiscoverX)) EUB0001049a SRPK1; conditions: at 1 µM
[1] = biological target: Epidermal growth factor receptor (Homo sapiens, UniProt P00533); experiment: Selectivity interaction (Enyzmatic assay) EUB0000601a EGFR
[2] = biological target: T1, Homeodomain-interacting protein kinase 4 (Homo sapiens) (UniProt Q8NE63); experiment: Selectivity interaction (KinomeScan (DiscoverX)) EUB0000229b HIPK4; conditions: at 10 µM
T1 sequence (whole entry): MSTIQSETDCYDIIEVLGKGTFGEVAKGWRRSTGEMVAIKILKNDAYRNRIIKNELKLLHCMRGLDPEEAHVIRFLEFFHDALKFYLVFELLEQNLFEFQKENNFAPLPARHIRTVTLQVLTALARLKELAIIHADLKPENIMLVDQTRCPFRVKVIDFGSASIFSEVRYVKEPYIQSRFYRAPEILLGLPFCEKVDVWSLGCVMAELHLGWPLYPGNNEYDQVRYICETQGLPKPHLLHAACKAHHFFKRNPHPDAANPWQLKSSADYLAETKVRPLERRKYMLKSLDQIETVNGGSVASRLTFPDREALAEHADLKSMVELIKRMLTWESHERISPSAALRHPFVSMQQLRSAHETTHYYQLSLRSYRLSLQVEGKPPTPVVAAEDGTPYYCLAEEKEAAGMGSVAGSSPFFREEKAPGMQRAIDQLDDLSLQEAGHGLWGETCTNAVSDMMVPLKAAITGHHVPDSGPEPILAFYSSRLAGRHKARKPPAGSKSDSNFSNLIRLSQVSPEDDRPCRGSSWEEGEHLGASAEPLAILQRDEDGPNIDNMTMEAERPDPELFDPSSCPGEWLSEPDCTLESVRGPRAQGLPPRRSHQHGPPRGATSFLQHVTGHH

[3] = biological target: T2, Serine/threonine-protein kinase Nek8 (Homo sapiens) (UniProt Q86SG6); experiment: Selectivity interaction (ActivX KiNativ screen (kinase selectivity in THP-1 cell lysates)) EUB0000639a NEK8; assay type: subcellular; conditions: lysate
T2 sequence (whole entry): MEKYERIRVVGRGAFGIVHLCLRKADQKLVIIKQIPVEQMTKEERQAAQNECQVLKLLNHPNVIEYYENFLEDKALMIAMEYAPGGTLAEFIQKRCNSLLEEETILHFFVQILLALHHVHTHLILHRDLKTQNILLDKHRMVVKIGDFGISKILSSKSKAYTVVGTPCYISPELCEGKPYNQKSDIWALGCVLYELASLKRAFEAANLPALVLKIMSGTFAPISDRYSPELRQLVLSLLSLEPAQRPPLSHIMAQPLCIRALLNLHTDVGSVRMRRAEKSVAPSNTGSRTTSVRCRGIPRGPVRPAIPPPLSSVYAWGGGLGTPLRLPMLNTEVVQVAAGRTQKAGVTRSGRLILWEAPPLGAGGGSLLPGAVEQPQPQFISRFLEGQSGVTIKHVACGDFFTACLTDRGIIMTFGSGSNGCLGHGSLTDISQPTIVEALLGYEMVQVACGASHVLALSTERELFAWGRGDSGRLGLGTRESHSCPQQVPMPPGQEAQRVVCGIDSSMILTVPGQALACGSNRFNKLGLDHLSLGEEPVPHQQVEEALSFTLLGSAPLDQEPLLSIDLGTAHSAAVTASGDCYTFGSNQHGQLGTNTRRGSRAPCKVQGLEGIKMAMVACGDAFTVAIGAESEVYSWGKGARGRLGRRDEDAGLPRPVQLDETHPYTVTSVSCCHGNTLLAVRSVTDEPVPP

[4] = biological target: Cyclin-dependent kinase 16 (Homo sapiens) (UniProt Q00536); experiment: Selectivity interaction (ActivX KiNativ screen (kinase selectivity in THP-1 cell lysates)) EUB0000639a CDK16; assay type: subcellular; conditions: lysate, at 5 µM
Chain of Cyclin-dependent kinase 16 (Homo sapiens) (Q00536 whole entry): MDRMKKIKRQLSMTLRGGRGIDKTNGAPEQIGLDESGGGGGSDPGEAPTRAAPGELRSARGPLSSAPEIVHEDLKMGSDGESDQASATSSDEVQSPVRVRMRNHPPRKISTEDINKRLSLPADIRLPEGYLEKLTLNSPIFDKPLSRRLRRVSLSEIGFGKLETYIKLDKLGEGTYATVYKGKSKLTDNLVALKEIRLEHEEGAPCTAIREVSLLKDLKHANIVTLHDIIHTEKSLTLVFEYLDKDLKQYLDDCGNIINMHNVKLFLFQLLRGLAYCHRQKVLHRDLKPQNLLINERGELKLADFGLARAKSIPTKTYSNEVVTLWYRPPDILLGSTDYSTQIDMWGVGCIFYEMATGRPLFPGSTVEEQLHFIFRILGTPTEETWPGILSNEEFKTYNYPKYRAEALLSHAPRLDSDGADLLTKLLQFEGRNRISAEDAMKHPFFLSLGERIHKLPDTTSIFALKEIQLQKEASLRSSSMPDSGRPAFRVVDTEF

[5] = test system: Tyrosine-protein kinase ABL1 (Homo sapiens), P00519 [F317I]; experiment: (§1) Selectivity interaction (KinomeScan (DiscoverX)) EUB0000618a ABL1; conditions: at 10 µM
[6] = test system: Tyrosine-protein kinase ABL1 (Homo sapiens), P00519 [E255K]; experiment: as §1; conditions: at 10 µM
[7] = test system: Tyrosine-protein kinase ABL1 (Homo sapiens), P00519 [Q252H]; experiment: as §1; conditions: at 10 µM
[8] = test system: Tyrosine-protein kinase ABL1 (Homo sapiens), P00519 [T315I]; experiment: as §1; conditions: at 10 µM
[9] = test system: Tyrosine-protein kinase ABL1 (Homo sapiens), P00519 [H396P]; experiment: as §1; conditions: at 10 µM
[10] = test system: Tyrosine-protein kinase ABL1 (Homo sapiens), P00519 [M351T]; experiment: as §1; conditions: at 10 µM
[11] = test system: Tyrosine-protein kinase ABL1 (Homo sapiens), P00519 [F317L]; experiment: as §1; conditions: at 10 µM
[12] = biological target: Tyrosine-protein kinase ABL1 (Homo sapiens, UniProt P00519); experiment: as §1; conditions: at 10 µM
[13] = test system: Tyrosine-protein kinase ABL1 (Homo sapiens), P00519 [Y253F]; experiment: as §1; conditions: at 10 µM
[14] = test system: Mast/stem cell growth factor receptor Kit (Homo sapiens), P10721 [D816H]; conditions: at 10 µM
Chain of Mast/stem cell growth factor receptor Kit (Homo sapiens), P10721 [D816H] (P10721 whole entry D816H, canonical isoform): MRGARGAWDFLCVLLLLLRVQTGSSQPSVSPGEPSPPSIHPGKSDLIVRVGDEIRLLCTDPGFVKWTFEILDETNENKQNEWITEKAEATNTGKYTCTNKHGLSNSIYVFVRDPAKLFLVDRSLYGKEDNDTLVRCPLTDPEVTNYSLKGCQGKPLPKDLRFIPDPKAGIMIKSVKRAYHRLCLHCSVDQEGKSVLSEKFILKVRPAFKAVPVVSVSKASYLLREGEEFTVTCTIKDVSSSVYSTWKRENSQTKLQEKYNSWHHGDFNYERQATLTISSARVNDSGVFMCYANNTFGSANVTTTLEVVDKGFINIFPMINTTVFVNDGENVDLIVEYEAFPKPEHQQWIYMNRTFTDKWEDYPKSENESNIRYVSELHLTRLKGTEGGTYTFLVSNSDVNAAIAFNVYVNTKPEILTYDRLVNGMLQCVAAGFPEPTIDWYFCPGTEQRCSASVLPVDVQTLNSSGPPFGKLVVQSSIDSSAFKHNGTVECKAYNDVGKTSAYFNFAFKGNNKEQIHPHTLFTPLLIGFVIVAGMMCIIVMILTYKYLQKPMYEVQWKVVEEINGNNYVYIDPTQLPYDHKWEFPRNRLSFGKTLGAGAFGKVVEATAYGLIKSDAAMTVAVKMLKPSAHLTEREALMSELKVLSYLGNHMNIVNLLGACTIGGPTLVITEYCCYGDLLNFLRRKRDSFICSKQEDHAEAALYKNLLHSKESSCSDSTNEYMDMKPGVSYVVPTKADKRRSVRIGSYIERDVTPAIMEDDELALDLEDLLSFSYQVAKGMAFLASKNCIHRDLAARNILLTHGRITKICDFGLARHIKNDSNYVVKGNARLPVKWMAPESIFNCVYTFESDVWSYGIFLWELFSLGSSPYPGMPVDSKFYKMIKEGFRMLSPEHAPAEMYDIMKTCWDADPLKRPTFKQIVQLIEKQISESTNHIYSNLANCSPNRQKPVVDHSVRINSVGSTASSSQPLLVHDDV

[15] = biological target: T3, Phosphorylase b kinase gamma catalytic chain, liver/testis isoform (Homo sapiens) (UniProt P15735); experiment: Selectivity interaction (KinomeScan (DiscoverX)) EUB0000655a PHKG2; conditions: at 10 µM
T3 sequence (whole entry): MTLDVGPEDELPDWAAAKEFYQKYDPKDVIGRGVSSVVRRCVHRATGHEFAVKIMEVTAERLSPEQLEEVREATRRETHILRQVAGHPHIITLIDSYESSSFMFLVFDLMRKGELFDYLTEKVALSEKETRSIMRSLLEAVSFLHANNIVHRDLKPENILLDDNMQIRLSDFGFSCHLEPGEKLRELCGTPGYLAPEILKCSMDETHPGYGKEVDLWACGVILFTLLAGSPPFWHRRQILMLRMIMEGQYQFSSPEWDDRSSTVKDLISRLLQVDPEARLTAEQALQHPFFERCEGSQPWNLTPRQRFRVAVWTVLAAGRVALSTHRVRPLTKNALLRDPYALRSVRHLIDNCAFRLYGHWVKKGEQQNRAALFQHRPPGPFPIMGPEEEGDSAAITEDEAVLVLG

Chain of SRSF protein kinase 1 (Q96SB4 whole entry): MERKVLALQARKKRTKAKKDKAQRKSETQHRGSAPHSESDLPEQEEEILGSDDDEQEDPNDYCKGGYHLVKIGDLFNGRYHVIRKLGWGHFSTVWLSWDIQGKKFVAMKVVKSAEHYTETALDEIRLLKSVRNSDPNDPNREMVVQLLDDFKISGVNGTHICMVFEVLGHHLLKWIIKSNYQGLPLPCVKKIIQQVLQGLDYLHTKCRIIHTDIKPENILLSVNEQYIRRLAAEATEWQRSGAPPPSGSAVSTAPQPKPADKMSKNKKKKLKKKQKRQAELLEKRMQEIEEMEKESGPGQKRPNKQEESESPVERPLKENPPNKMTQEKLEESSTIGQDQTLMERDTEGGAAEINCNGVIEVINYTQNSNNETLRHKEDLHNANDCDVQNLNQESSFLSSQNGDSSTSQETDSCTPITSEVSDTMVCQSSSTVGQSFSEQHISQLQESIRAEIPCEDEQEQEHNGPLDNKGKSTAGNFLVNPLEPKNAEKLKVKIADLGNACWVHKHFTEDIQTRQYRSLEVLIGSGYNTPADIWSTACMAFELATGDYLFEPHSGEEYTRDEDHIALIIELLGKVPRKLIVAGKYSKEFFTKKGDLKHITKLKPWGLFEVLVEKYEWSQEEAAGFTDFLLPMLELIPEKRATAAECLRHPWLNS
Chain of Epidermal growth factor receptor (P00533 whole entry): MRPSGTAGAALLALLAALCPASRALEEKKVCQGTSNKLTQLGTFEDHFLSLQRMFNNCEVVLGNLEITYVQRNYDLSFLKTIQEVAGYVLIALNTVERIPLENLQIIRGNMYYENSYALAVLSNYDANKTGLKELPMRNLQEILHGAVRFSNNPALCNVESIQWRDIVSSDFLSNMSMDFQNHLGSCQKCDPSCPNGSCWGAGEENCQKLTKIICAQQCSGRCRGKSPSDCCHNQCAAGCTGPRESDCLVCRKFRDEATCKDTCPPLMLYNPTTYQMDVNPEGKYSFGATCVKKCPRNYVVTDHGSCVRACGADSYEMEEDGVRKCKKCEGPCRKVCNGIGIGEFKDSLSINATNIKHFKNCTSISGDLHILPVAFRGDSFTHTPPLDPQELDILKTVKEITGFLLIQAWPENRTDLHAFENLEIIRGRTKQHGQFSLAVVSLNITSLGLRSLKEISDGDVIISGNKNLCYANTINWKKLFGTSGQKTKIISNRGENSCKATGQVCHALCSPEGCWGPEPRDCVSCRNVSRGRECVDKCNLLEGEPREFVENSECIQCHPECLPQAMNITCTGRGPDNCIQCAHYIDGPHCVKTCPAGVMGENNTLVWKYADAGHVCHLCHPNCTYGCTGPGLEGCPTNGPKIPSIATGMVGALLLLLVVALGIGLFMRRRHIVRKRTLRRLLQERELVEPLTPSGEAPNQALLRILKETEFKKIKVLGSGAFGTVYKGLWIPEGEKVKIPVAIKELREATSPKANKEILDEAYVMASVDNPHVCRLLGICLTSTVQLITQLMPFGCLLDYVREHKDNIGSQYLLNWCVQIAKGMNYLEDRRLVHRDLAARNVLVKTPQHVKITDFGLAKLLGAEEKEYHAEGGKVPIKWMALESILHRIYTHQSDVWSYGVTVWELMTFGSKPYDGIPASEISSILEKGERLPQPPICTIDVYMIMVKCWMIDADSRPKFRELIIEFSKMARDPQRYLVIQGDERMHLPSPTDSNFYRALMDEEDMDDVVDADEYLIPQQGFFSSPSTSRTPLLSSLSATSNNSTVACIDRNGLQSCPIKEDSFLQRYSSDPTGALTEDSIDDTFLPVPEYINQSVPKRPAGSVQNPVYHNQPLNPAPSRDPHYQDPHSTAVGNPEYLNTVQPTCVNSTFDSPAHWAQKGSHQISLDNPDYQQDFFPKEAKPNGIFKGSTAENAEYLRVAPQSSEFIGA

COc1cc(Nc2nc(C)cc(-c3cnn4nc(OC)ccc34)n2)cc(C(F)(F)F)c1
% of control (SRSF protein kinase 1): 96%

CCc1cc(Nc2nccc(-c3c(-c4ccc(OC)c(C(=O)Nc5c(F)cccc5F)c4)nc4ccccn34)n2)c(OC)cc1N1CCC(N2CCN(S(C)(=O)=O)CC2)CC1
IC50 [1]: > 10 µM

COc1cc(N(C)c2ccnc3ccc(C(F)(F)F)cc23)cc(OC)c1OC
% binding [2]: 100%

CC[C@@H]1[C@H](F)C(=O)N[C@@H]1COc1nccc2cc(C(N)=O)c(OC)cc12 [ZIMLOVISERTIB]
% of inhibition ([3]; at 0.01 µM): -12.6% | % of inhibition ([3]; at 0.04 µM): 9.8% | % of inhibition ([3]; at 0.2 µM): -2.6% | % of inhibition ([3]; at 1 µM): 3.4% | % of inhibition ([3]; at 5 µM): -20.5% | % of inhibition [4]: 41.7%

O[C@H]1CC[C@H](Nc2ncc3nc(Nc4c(F)cc(F)cc4F)n([C@H]4CCOC4)c3n2)CC1
% of control [5]: 51% | % of control [6]: 31% | % of control [7]: 47% | % of control [8]: 100% | % of control [9]: 13% | % of control [10]: 38% | % of control [11]: 55% | % of control [12]: 39% | % of control [13]: 29%

Cc1cc([C@@H](C)Nc2ccccc2C(=O)O)c2nc(N3CCOCC3)cc(=O)n2c1 [AZD-6482]
% of control [14]: 88%

CN(C)CCOc1ccc(-c2nc(-c3ccncc3)c(-c3ccc4c(c3)CC/C4=N\O)[nH]2)cc1
% of control [15]: 100%
